Assay: xn = mol fraction of the nth substance listed
Details: 102 kPa, Liquid; for viscosity: Concentric cylinders viscometry; for speed of sound: Frequency=3 MHz, Single path-length method; for mass density: Vibrating tube method

CCCC1CCCCC1 [1-cyclohexylpropane] + CCCCCCCCCCCCCCCC
Details | mass density [kg/m3] | speed of sound [m/s] | viscosity [mPa·s]
293.15 K, x1 = 0.2001 | 775.57 | 1349.9 | 2.9
293.15 K, x1 = 0.4008 | 778.35 | 1341.6 | 2.35
293.15 K, x1 = 0.5001 | 779.98 | 1336.9 | 2.11
293.15 K, x1 = 0.6009 | 781.97 | 1331.7 | 1.85
293.15 K, x1 = 0.8301 | 787.65 | 1318.8 | 1.34
293.15 K, x1 = 1 | 793.54 | 1307.8 | 0.996
303.15 K, x1 = 0.2001 | 768.58 | 1312.1 | 2.34
303.15 K, x1 = 0.4008 | 771.27 | 1303.8 | 1.94
303.15 K, x1 = 0.5001 | 772.84 | 1298.4 | 1.74
303.15 K, x1 = 0.6009 | 774.74 | 1293.3 | 1.55
303.15 K, x1 = 0.8301 | 780.16 | 1279.2 | 1.14
303.15 K, x1 = 1 | 785.73 | 1266.2 | 0.86
313.15 K, x1 = 0.2001 | 761.59 | 1275.2 | 1.93
313.15 K, x1 = 0.4008 | 764.18 | 1266.6 | 1.61
313.15 K, x1 = 0.5001 | 765.69 | 1260.8 | 1.46
313.15 K, x1 = 0.6009 | 767.5 | 1255.6 | 1.31
313.15 K, x1 = 0.8301 | 772.64 | 1240.3 | 0.975
313.15 K, x1 = 1 | 777.9 | 1225.6 | 0.75
323.15 K, x1 = 0.2001 | 754.61 | 1239 | 1.61
323.15 K, x1 = 0.4008 | 757.08 | 1230 | 1.37
323.15 K, x1 = 0.5001 | 758.53 | 1224 | 1.25
323.15 K, x1 = 0.6009 | 760.24 | 1218.5 | 1.13
323.15 K, x1 = 0.8301 | 765.09 | 1202 | 0.858
323.15 K, x1 = 1 | 770.04 | 1185.9 | 0.663
333.15 K, x1 = 0.2001 | 747.61 | 1203.8 | 1.37
333.15 K, x1 = 0.4008 | 749.96 | 1194.3 | 1.18
333.15 K, x1 = 0.5001 | 751.33 | 1188 | 1.07
333.15 K, x1 = 0.6009 | 752.95 | 1182.1 | 0.97
333.15 K, x1 = 0.8301 | 757.51 | 1164.5 | 0.747
333.15 K, x1 = 1 | 762.12 | 1147.3 | 0.584
343.15 K, x1 = 0.2001 | 740.6 | – | 1.19
343.15 K, x1 = 0.4008 | 742.9 | – | 1.03
343.15 K, x1 = 0.5001 | 744.1 | – | 0.946
343.15 K, x1 = 0.6009 | 745.6 | – | 0.863
343.15 K, x1 = 0.8301 | 749.8 | – | 0.673
343.15 K, x1 = 1 | 754.2 | – | 0.544
353.15 K, x1 = 0.2001 | 733.6 | – | 1.02
353.15 K, x1 = 0.4008 | 735.7 | – | 0.905
353.15 K, x1 = 0.5001 | 736.9 | – | 0.834
353.15 K, x1 = 0.6009 | 738.3 | – | 0.764
353.15 K, x1 = 0.8301 | 742.2 | – | 0.594
353.15 K, x1 = 1 | 746.1 | – | 0.477
363.15 K, x1 = 0.2001 | 726.5 | – | 0.918
363.15 K, x1 = 0.4008 | 728.5 | – | 0.805
363.15 K, x1 = 0.5001 | 729.5 | – | 0.746
363.15 K, x1 = 0.6009 | 730.8 | – | 0.685
363.15 K, x1 = 0.8301 | 734.6 | – | 0.503
363.15 K, x1 = 1 | 738 | – | 0.452
